From US10240216B2 (priority 2013, dated 2019)

Legend:
[1] = tested on: a number of bacteria and fungi; conditions: concentration of 1 mg/ml; cited from earlier work
[2] = tested on: a number of bacteria; conditions: concentration of 64 µg/mL; cited from earlier work
[3] = tested on: Magnaporthe oryzae; type: cell-based; conditions: at 25 μg/mL
[4] = tested on: human neutrophils; conditions: cited from earlier work
[5] = tested on: Mucor miehei; type: cell-based
[6] = tested on: Bacillus brevis; type: cell-based
[7] = tested on: Paealomyces variotii; type: cell-based
[8] = tested on: HeLaS3 cells; conditions: 50 μg/mL, 72 h

arohynapene D
antimicrobial activity in vitro against a number of bacteria and fungi [1]: no antimicrobial activity

C[C@@H]1C[C@@](C)(O)Cc2ccc(CO)c(/C=C/C=C/C(=O)O)c21 [tanzawaic acid G, Tanzawaic acids G and H]
activity against a number of bacteria [2]: neither tanzawaic acids G nor H were found to be active

Cc1ccc2c(c1/C=C/C=C/C(=O)O)C(C)CC(C)C2O (stereo not shown) [arohynapene A]
inhibition of the spore germination of Magnaporthe oryzae [3]: 100%
antimicrobial activity in vitro against a number of bacteria and fungi [1]: no antimicrobial activity

Tanzawaic acids A, B, C and D [tanzawaic acid B]
inhibition of superoxide anion production in human neutrophils [4]: inhibit superoxide anion production

hynapenes A, B and C [hynapene A]
antimicrobial activity in vitro against a number of bacteria and fungi [1]: show antimicrobial activity

Cc1ccc2c(c1/C=C/C=C/C(=O)O)[C@H](C)C[C@H](C)C2 [tanzawaic acid A]
inhibition of superoxide anion production in human neutrophils [4]: inhibit superoxide anion production
activity in agar diffusion assay against Mucor miehei [5]: slight activity
activity in agar diffusion assay against Bacillus brevis [6]: slight activity
activity in agar diffusion assay against Paealomyces variotii [7]: slight activity
cytotoxic effects against HeLaS3 cells [8]: cytotoxic effects

CC1Cc2ccc(CO)c(/C=C/C=C/C(=O)O)c2C(C)C1 (stereo not shown) [arohynapene B]
inhibition of the spore germination of Magnaporthe oryzae [3]: 100%
antimicrobial activity in vitro against a number of bacteria and fungi [1]: no antimicrobial activity
